# Data from ChEMBL document CHEMBL1201862, “PubChem BioAssay data set” (2004).
# Calls of active or inactive are those of the source.
# Tests used:
# Staphylococcus aureus = assay: Inhibitors of Bacterial Quorum Sensing Structure Activity Relationship (SAR) Analysis: Dose Response Assay. [Related pubchem assays: 700, 527 ]; assay type: functional, organism-based
# [1] = target: Peroxisome proliferator-activated receptor gamma/Nuclear receptor corepressor 2 (Homo sapiens, UniProt P37231+Q9Y618); assay type: functional
# [2] = target: T1, Induced myeloid leukemia cell differentiation protein Mcl-1 (Homo sapiens, UniProt Q07820); assay type: functional
# [3] = target: T1, Induced myeloid leukemia cell differentiation protein Mcl-1; assay: blockers of MCL1 binding to BIM peptide – biochemical, fluorescence polarization, BIM-BH3 peptide, 1536-well, dose response (AID 2217)
# Bcl-2-like protein 1 = Bcl-2-like protein 1 (Homo sapiens, UniProt Q07817); assay: blockers of BCLXL peptide binding – biochemical, fluorescence polarization, 1536-well, selectivity assay for MCL1 inhibitor project, dose response (AID 2218)
# [4] = target: Photoreceptor-specific nuclear receptor (Homo sapiens, UniProt Q9Y5X4); assay type: functional;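 also: potency for compounds that break the NR2E3 corepressor complex and count as activators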
# Bcl-2-like protein 10 = target: T2, Bcl-2-like protein 10 (Homo sapiens, UniProt Q9HD36); assay: Concentration-response of Bcl-B inhibitors by biochemical FP with TR3 (AID 1243); assay type: functional
# T2 sequence (Q9HD36 whole entry): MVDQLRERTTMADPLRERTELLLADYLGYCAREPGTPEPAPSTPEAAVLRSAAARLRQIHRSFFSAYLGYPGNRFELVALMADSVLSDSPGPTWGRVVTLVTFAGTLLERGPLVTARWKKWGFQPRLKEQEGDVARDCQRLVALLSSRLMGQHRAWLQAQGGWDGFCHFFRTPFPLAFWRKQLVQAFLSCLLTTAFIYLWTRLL
# [5] = target: T3, Nucleotide-binding oligomerization domain-containing protein 2 (Homo sapiens, UniProt Q9HC29); assay: PubChem AID 2334; assay type: functional
# [6] = alpha-synuclein stem-loop luciferase translation blockers – H4 neuroglioma cells, luminescence, confirmation (AID 1988); assay type: functional, cell-based
# [7] = Trypanosoma cruzi growth suppression in host cells – NIH3T3 host cells, beta-gal luminescence, confirmation (AID 2044); assay type: functional, cell-based;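 also: intracellular parasites grown in NIH/3T3 mouse fibroblasts as host cells; luminescent beta-galactosidase reporter signal from transgenic T. cruzi replicating inside host cells; inhibitors lower the luminescence signal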
# [8] = Luminescence-based counterscreen assay for KLF5 inhibitors: dose response cell-based high throughput screening assay to identify cytotoxic compounds using the IEC-6 intestinal epithelial cell line. [Related pubchem assays: 1700 (Primary screen.), 1834 (Confirmation screen.), 1858 (Summary AID.), 1905 (Counterscreen.)]; assay type: functional
# HEK293 [9] = assay: cells; conditions: Homo sapiens
# HEK293 [10] = assay: cells; assay type: functional, cell-based; conditions: Homo sapiens
# HEK293 [11] = assay: cells; assay type: functional, cell-based; conditions: Homo sapiens; remark: listed apart in the source
# [12] = target: T3, Nucleotide-binding oligomerization domain-containing protein 2; assay: inhibition of NOD2-driven NF-kB reporter – cell-based, luminescence, uHTS, HEK293 (AID 1566); assay type: functional
# [13] = Luminescence Cell-Based Dose Response HTS to Identify Inhibitors of 5'UTR Stem-Loop Driven Prion Protein mRNA Translation in H4 Neuroglioblastoma Cells. [Related pubchem assays: 1827 (Project Summary), 1813 (Primary HTS)]; assay type: functional
# Paired box protein Pax-8 = Paired box protein Pax-8 (Homo sapiens, UniProt Q06710); assay: PAX8 transcriptional activity inhibition in RMG-I – RMG-I cells, luciferase, cherry-pick, dose response (AID 687027); assay type: functional, cell-based;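 also: luciferase reporter driven by Pax8 target thyroperoxidase promoter measured by SteadyGlo luminescence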
# Vero [14] = assay: cells; assay type: functional; conditions: Chlorocebus sabaeus
# INS1 = assay: INS-1E survival protection against cytokine death – cell-based, luminescence, retest, dose response (AID 449756); assay type: functional; conditions: Rattus norvegicus;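 also: cell death triggered by IL-1 beta plus TNF-alpha plus IFN-gamma mixture; protective hits raise ATP signal compared with cytokine alone wells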
# [15] = fluconazole-exposed Candida albicans growth modulators – fluorescence, retest, confirmation (AID 2467); assay type: functional, cell-based
# [16] = NIH3T3 cell viability loss – ATP luminescence, mouse fibroblasts, counter-screen, dose response (AID 2010); assay type: functional, cell-based;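 also: cells exposed to compound for about 90 hours before reading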
# Interleukin-8 [17] = target: T4, Interleukin-8 (Homo sapiens, UniProt P10145); assay: SAR analysis of GM-Tri-DAP induced IL-8 secretion in MCF-7/NOD1 cells - Set 2. [Related pubchem assays (depositor defined):AID1575, AID1578, AID2333]; assay type: functional, cell-based
# T4 sequence (P10145 whole entry): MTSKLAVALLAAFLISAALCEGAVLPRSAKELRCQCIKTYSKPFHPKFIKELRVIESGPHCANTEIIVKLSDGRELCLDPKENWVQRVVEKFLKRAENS
# Vero [18] = assay: cells; assay type: functional, cell-based; conditions: Chlorocebus sabaeus
# Tumor necrosis factor = Tumor necrosis factor (Homo sapiens, UniProt P01375); assay: analog potency on TNFa NF-kB signaling – cell-based, revised, SAR follow-up (AID 2337); assay type: functional
# Interleukin-8 [19] = target: T4, Interleukin-8; assay: SAR analysis of Tumor necrosis factor alpha (TNF-alpha) induced IL-8 secretion in MCF-7/NOD1 cells - Set 2. [Related pubchem assays (depositor defined):AID1575, AID2250, AID2260]; assay type: functional, cell-based
# [20] = luciferase reporter signal suppression in cells – H4 neuroglioma cells, luminescence, dose response (AID 1990); assay type: functional, cell-based
# HEK293 [21] = assay: NOD2 signaling inhibitors in MDP-stimulated cells, cell-based, uHTS, luminescence (AID 2001); assay type: functional; conditions: Homo sapiens
# [22] = target: T5, Nucleotide-binding oligomerization domain-containing protein 1 (Homo sapiens, UniProt Q9Y239); assay: blockers of NOD1 pathway activity – revised, SAR follow-up (AID 2333); assay type: functional
# T5 sequence (Q9Y239 whole entry): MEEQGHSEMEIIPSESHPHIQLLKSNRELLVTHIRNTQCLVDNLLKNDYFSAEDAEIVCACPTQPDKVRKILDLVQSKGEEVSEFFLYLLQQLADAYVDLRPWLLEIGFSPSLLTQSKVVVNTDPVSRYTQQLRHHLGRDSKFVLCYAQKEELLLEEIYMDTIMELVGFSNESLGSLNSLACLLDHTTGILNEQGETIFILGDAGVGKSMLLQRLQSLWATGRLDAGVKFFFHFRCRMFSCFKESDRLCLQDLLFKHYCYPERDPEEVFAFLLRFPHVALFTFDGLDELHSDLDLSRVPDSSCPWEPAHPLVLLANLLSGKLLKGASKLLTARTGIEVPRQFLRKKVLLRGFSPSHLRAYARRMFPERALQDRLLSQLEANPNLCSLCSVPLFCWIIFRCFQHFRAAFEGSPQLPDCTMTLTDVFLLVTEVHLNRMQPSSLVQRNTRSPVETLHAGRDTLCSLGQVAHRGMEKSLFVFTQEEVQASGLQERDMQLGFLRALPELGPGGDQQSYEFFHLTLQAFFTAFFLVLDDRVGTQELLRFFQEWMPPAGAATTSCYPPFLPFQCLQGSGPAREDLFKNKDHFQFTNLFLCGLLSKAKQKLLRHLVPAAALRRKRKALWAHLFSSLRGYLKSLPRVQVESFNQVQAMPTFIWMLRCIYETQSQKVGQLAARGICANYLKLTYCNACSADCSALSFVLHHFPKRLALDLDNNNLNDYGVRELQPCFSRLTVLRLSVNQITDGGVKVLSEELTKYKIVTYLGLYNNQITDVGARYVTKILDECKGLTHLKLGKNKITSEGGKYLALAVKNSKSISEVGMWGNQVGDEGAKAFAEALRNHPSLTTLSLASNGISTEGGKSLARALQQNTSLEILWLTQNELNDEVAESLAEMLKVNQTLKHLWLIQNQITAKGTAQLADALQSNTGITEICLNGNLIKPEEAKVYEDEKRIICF
# HEK293 [23] = assay: inhibition of NOD1-driven NF-kB reporter – cell-based, luminescence, uHTS, primary screen (AID 1578); assay type: functional; conditions: Homo sapiens
# [24] = NIH-3T3 fibroblast cytotoxicity, dose response, cytotoxicity control, cell-based, fluorescence, Alamar Blue, secondary assay (AID 2327); assay type: functional;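 also: NIH-3T3 mouse fibroblasts cultured with fluconazole at 8 µg/mL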
# HEK293 [25] = assay: cells; assay type: functional, cell-based; conditions: Homo sapiens; remark: listed apart in the source
# [26] = target: Serine/threonine-protein phosphatase (Homo sapiens, UniProt Q9BPW0); assay: Counterscreen for inhibitors of PP1: fluorescence-based biochemical high throughput dose response assay to identify inhibitors of Protein Phosphatase 5 (PP5). [Related pubchem assays: 2034 (Summary (PP5 inhibitors)), 1987 (PP5 inhibitors in singlate), 2235 (PP1 inhibitors in singlate)]
# [27] = target: Serine/threonine-protein phosphatase PP1-alpha catalytic subunit (Homo sapiens, UniProt P62136); assay: inhibition of protein phosphatase 1 activity – biochemical, fluorescence, dose response (AID 2403);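 also: phosphatase turnover of OMFP into fluorescent 3-O-methylfluorescein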
# Nonstructural protein 1 = Nonstructural protein 1 (Influenza A virus, UniProt Q194T2); assay type: functional, Influenza A virus (A/California/07/2009(H1N1))
# T3 sequence (Q9HC29 whole entry, the tested form may be a part): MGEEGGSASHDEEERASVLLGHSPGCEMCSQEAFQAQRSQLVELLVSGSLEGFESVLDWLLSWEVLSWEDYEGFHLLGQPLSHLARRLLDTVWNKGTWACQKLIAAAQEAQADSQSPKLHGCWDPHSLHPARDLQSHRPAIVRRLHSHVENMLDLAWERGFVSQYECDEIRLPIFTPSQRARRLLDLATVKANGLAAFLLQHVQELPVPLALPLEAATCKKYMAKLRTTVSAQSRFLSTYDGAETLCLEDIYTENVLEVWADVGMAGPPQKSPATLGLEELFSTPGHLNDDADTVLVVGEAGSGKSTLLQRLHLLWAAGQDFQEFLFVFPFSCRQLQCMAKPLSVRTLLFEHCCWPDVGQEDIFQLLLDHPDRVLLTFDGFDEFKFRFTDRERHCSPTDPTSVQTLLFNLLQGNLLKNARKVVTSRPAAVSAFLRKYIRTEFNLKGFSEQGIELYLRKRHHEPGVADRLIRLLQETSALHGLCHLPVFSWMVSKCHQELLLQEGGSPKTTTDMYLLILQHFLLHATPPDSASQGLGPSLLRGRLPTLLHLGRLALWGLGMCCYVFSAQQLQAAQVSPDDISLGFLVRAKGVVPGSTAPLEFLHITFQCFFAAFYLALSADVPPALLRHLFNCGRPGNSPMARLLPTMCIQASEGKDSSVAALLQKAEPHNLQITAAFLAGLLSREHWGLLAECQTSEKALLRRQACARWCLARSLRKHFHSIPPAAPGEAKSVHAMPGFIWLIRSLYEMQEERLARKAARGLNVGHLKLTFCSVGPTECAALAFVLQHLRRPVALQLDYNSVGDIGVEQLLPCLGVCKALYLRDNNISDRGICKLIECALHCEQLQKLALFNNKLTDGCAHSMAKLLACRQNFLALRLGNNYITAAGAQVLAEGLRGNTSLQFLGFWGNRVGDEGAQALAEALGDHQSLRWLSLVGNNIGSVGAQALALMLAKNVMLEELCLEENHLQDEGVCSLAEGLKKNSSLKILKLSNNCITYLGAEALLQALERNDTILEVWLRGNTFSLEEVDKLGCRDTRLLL
# T1 sequence (Q07820 whole entry): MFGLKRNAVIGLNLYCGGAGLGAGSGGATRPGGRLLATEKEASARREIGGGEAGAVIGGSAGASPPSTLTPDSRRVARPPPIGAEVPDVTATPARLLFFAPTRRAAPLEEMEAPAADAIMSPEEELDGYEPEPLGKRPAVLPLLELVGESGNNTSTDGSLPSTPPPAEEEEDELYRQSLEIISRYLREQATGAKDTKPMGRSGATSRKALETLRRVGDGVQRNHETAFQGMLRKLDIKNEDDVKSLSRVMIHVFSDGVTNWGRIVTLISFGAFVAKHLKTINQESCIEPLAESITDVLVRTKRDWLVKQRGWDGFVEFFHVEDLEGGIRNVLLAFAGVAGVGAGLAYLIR
# Chain of Serine/threonine-protein phosphatase PP1-alpha catalytic subunit (P62136 whole entry): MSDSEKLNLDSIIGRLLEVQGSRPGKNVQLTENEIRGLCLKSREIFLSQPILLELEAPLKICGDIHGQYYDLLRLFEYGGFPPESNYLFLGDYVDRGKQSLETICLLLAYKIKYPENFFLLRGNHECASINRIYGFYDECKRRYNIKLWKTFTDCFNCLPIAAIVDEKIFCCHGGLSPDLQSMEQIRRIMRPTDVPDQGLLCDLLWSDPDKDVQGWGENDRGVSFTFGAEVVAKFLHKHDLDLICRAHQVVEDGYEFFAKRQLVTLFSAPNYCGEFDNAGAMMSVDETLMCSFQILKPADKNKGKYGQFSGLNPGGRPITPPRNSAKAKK
# Chain of Peroxisome proliferator-activated receptor gamma/Nuclear receptor corepressor 2 (P37231 whole entry): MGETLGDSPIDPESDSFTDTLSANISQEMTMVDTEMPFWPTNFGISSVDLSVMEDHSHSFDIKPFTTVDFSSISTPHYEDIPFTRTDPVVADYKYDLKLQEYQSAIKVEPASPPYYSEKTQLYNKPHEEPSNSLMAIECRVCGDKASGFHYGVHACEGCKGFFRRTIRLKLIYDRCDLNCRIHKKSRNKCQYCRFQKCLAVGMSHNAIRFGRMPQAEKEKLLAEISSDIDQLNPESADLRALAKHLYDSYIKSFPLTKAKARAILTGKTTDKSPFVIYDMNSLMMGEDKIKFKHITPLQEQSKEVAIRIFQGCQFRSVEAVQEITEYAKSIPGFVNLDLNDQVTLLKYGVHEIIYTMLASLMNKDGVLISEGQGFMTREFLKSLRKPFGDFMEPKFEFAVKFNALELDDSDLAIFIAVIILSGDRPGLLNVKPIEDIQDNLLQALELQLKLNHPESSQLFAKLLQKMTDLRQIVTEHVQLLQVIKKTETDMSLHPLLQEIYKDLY
# Chain of Peroxisome proliferator-activated receptor gamma/Nuclear receptor corepressor 2 (Q9Y618 whole entry): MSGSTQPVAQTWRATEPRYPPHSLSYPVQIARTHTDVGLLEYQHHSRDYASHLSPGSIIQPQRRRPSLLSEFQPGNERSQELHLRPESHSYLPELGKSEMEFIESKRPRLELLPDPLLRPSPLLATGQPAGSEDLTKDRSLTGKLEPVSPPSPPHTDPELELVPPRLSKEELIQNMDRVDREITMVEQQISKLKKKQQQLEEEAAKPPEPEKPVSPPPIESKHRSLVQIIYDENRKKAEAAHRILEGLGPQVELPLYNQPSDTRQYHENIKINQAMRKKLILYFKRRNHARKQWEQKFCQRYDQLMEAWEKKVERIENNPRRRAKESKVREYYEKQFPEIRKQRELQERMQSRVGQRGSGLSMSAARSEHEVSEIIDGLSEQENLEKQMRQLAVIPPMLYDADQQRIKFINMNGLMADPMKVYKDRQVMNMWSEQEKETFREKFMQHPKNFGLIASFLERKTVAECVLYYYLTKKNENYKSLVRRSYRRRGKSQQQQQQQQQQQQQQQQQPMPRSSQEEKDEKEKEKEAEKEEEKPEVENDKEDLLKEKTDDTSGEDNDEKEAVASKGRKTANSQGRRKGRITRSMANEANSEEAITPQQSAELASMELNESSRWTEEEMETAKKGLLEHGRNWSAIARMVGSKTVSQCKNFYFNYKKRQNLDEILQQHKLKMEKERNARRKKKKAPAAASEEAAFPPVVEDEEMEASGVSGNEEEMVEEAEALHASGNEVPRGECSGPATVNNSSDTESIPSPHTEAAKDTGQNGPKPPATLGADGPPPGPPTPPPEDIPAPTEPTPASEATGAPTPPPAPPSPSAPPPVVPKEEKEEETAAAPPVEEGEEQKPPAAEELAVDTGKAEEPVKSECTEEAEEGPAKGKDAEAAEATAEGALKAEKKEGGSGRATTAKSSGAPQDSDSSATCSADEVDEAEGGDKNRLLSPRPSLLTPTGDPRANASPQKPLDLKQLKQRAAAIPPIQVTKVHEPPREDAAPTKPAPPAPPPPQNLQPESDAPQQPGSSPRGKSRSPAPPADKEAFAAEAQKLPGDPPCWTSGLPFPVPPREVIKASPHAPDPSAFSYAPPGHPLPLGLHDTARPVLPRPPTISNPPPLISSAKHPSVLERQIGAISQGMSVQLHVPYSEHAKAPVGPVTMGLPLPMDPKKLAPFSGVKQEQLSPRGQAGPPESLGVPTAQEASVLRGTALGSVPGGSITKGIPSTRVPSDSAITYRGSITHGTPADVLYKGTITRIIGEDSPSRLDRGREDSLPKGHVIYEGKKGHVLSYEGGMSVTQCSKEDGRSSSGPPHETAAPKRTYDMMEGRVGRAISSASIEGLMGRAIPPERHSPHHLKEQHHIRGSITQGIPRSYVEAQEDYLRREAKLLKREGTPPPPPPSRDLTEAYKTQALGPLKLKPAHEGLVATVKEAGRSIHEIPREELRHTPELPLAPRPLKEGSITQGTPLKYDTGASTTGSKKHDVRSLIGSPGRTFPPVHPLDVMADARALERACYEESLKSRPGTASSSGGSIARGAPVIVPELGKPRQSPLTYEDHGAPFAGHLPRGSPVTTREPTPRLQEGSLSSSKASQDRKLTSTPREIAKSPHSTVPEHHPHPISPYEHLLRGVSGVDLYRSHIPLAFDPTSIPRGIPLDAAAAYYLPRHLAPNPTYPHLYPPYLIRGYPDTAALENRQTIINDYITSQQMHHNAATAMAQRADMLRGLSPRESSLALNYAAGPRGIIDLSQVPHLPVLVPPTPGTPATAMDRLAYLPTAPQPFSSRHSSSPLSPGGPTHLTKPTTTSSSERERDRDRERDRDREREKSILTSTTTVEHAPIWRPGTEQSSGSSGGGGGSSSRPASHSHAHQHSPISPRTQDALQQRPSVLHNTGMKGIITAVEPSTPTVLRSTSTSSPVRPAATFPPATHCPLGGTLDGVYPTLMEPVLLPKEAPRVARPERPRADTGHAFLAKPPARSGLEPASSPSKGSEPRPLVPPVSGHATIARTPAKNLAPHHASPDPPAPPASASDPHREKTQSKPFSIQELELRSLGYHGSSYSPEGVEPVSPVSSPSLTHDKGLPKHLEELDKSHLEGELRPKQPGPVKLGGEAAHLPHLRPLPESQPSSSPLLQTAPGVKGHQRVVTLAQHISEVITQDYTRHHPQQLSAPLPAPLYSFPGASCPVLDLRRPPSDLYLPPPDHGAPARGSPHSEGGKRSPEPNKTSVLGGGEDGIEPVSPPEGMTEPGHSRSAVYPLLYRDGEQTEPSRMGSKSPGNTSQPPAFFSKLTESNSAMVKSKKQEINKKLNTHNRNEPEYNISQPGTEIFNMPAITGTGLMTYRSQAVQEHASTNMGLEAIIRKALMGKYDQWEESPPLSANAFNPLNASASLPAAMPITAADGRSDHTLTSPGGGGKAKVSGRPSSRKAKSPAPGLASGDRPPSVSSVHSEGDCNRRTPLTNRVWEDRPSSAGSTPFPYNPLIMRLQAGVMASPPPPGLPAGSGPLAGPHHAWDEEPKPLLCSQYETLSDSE
# Chain of Bcl-2-like protein 1 (Q07817 whole entry): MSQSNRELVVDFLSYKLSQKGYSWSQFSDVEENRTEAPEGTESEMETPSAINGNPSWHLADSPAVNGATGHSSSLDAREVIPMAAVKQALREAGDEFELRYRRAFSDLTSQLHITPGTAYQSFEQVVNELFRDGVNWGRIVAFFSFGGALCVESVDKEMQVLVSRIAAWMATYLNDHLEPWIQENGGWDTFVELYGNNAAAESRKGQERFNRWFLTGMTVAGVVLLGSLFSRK
smiles,measurement,setting,value
CCOC(=O)c1c(C)oc2cc(Br)c(O)c(Br)c12,IC50,Staphylococcus aureus,0.779 µM (active)
Cc1ccc(-c2cc(C(=O)O)c3cc(Br)ccc3n2)o1,IC50,[1],3.93 µM (active)
same,IC50,[2],2.98 µM (active)
same,IC50,[3],27.9 µM (not active)
same,IC50,Bcl-2-like protein 1,> 109 µM (not active)
same,IC50,[4],> 39.8 µM (not active)
same,EC50,Bcl-2-like protein 10,16.5 µM (active)
Oc1ccc(N=Nc2ccccc2C(F)(F)F)c2cccnc12,IC50,[5],> 20 µM (inactive)
same,EC50,[6],0.308 µM (active)
same,EC50,[7],0.633 µM (active)
same,IC50,[8],6.27 µM (active)
same,IC50,HEK293 [9],> 20 µM (inactive)
same,IC50,HEK293 [10],> 20 µM (inactive)
same,IC50,HEK293 [11],> 20 µM (inactive)
same,EC50,[12],> 20 µM (inactive)
same,EC50,[13],1.08 µM (active)
same,AC50,Paired box protein Pax-8,4.15 µM (active)
same,CC50,Vero [14],4.62 µM (active)
same,AC50,INS1,1.17 µM (active)
same,EC50,[15],1.57 µM (active)
same,EC50,[16],6.95 µM (active)
same,IC50,Interleukin-8 [17],19.8 µM (active)
same,IC50,Vero [18],> 25 µM (active)
same,IC50,Tumor necrosis factor,7.03 µM (active)
same,IC50,Interleukin-8 [19],> 25 µM (inactive)
same,EC50,[20],1.9 µM (active)
same,IC50,HEK293 [21],4.21 µM (inactive)
same,IC50,[22],> 20 µM (inactive)
same,EC50,HEK293 [23],3.71 µM (active)
same,EC50,[24],> 160 µM (inactive)
same,IC50,HEK293 [25],> 20 µM (inactive)
Cc1ccn2c(Nc3ccc4c(c3)OCO4)c(-c3ccccn3)nc2c1,IC50,[26],37.9 µM (not active)
same,IC50,[27],6.76 µM (active)
same,IC50,Nonstructural protein 1,11.5 µM (active)
